From patent US20030144317A1, “Novel benzoylecgonine compositions and methods for producing them” (priority 2001, published 2003)

Columns and labels:
[1] = Stability testing (initial 5% w/w water) of the composition produced in Example 4; details: for relative amount of component at end of reaction (start of the stability trial): composition of Example 4 (initial 5% w/w water; H2O content 4.76 w/w), b61 reads the values as % of the composition
[2] = Stability testing (absence of water) of the composition produced in Example 3; details: for relative amount of component at end of reaction (start of the stability trial): composition of Example 3 (no water added; H2O content 0.12 w/w), b61 reads the values as % of the composition
[3] = composition of Example 4 (initial 5% w/w water), 25° C., 13 days
[4] = composition of Example 4 (initial 5% w/w water), 40° C., 13 days
[5] = composition of Example 3 (absence of water), 25° C., 13 days
[6] = composition of Example 3 (absence of water), 40° C., 13 days

| SMILES | relative amount of component, stability at 25° C. after 13 days [1, 3] | relative amount of component, stability at 40° C. after 13 days [1, 4] | relative amount of component at end of reaction (start of the stability trial) ([1]; day 16 of reaction at 50° C.) | relative amount of component, stability at 25° C. after 13 days [2, 5] | relative amount of component, stability at 40° C. after 13 days [2, 6] | relative amount of component at end of reaction (start of the stability trial) ([2]; day 15 of reaction at 60° C.) | BME % (w/w), stability at 25° C. after 13 days [1, 3] | BME % (w/w), stability at 40° C. after 13 days [1, 4] | BME % (w/w) at end of reaction (start of the stability trial) ([1]; composition of Example 4 (initial 5% w/w water), day 16 of reaction at 50° C.) | BME % (w/w), stability at 25° C. after 13 days [2, 5] | BME % (w/w), stability at 40° C. after 13 days [2, 6] | BME % (w/w) at end of reaction (start of the stability trial) ([2]; composition of Example 3 (absence of water), day 15 of reaction at 60° C.) |
| --- | --- | --- | --- | --- | --- | --- | --- | --- | --- | --- | --- | --- |
| O=C(O)c1ccccc1 [BA, benzoic acid] | 9.17 | 9.68 | 8.99 | 27.35 | 28.75 | 26.05 |  |  |  |  |  |  |
| CN1[C@H]2CC[C@@H]1[C@@H](C(=O)O)[C@@H](OC(=O)c1ccccc1)C2 [BEc, benzoylecgonine] | 64.02 | 66.31 | 63.8 | 3.99 | 4.28 | 4.097 |  |  |  |  |  |  |
| COC(=O)[C@H]1[C@@H](OC(=O)c2ccccc2)C[C@@H]2CC[C@H]1N2C [BME, 3-benzoyloxy-2-carbomethyoxy-8-methyl-8-azabicyclo[3.2.1]octane] | 0.84 | 0.46 | 0.95 | 1.19 | 0.90 | 1.76 | 0.07 % (w/w) | 0.04 % (w/w) | 0.08 % (w/w) | 0.08 % (w/w) | 0.06 % (w/w) | 0.13 % (w/w) |
| COC(=O)C1=CC[C@@H]2CC[C@H]1N2C [Methyl Ecd] | 0.86 | 0.80 | 1.00 | 1.33 | 1.26 | 1.42 |  |  |  |  |  |  |
